Reference: patent publication US20250367266A1, “ORAL PHARMACEUTICAL COMPOSITION FOR PREVENTION OR TREATMENT OF OSTEOPOROSIS CONTAINING TERIPARATIDE AND METHOD FOR PREPARATION THEREOF” (ICURE BNP CO., LTD., priority 2022, published 2025)
Where two headings read alike, the source gives them in different places.

Tests used:
[1] = test system: dexamethasone-induced mouse osteoporosis model; assay: Anti-osteoporotic effect, femur micro-CT and histology; format: in vivo, C57BL/6 mice; settings: 4 weeks
Description: (§1) To determine the anabolic effect of orally administered TRP/LDA/DA-DM on GC-induced osteoporosis, 9-week-old female C57BL/6 mice were randomly divided into 6 groups (n=10 per group): Control group (normal) (SC injection of normal saline once daily); Control group (DEX) (SC injection of 0.022 mg/kg DEX once daily); TRP-SC (0.02) (SC injection of 0.02 mg/kg TRP dissolved in physiological saline containing 0.022 mg/kg DEX once daily); TRP-oral (0.4) (SC injection of 0.022 mg/kg DEX dissolved in water with 0.4 mg/kg TRP orally once daily); RP (1:5:7)-15 (0.4) (once daily oral administration of TRP (1:5:7)-15 equivalent to 0.4 mg/kg TRP with SC injection of 0.022 mg/kg DEX); and TRP (1:5:7)-15 (0.8) (once daily oral administration of TRP (1:5:7)-15 equivalent to 0.8 mg/kg TRP with SC injection of 0.022 mg/kg DEX). Blood samples were collected for biochemical analysis 4 weeks after treatment.
In addition, femurs from 10 mice in each group were collected and fixed in 4% paraformaldehyde for bone density and histomorphometric analysis. The trabecular bone microstructure of the left femur was investigated using a Quantum GX micro-computed tomography (micro-CT) imaging system (PerkinElmer, Hopkinton, MA, USA) located at the Korea Institute of Basic Science (Gwangju, Korea). X-ray source settings included a voltage of 90 kV and a current of 88 uA, with a field of view of 10 mm (voxel size, 20 μm; scan time, 4 min). Three-dimensional (3D) images were obtained with 3D Viewer, an existing software in Quantum GX, and the resolution was set to 4.5 μm. After scanning, the structural parameters of the trabecular bone were analyzed using Analyze 12.0 software (Analyze Direct, Overland Park, KS, USA).
For histological observations, formalin-fixed femurs were […] in 10% ethylenediaminetetraacetic acid (EDTA) and dehydrated by passing through a graded ethanol series. Calcified femurs were then embedded in paraffin wax, cut into 5-μm-thick sections, and stained with hematoxylin and eosin (H&E). Histological sections were observed under an optical microscope (Bx41; Olympus, Tokyo, Japan), and photographs were taken focusing on the central portion of the growth plate.

[2] = test system: dexamethasone-induced mouse osteoporosis model; assay: Serum bone formation and resorption markers and calcium; format: in vivo, C57BL/6 mice
Description: as §1
After the final treatment once daily, serum samples were collected from mouse whole blood by centrifugation at 2000×g for 20 minutes. Then, the serum levels of osteocalcin, procollagen I N-terminal pro-peptide (PINP), and C-terminal cross-linked telopeptide of type I collagen (CTx) in each sample were determined according to the manufacturer's instructions using the Mouse Osteocalcin ELISA kit (LifeSpan BioSciences, Inc., Seattle, WA, USA), Rat/Mouse PINP EIA kit (Immunodiagnostic Systems Holdings Ltd., Tyne & Wear, UK), and RatLaps™ CTx-I EIA (Immunodiagnostic Systems Holdings Ltd.) was used to confirm each. In addition, the serum calcium level was confirmed through a colorimetric assay at 560 nm (Sigma-Aldrich).

[3] = Particle size, PDI and zeta potential (dynamic light scattering) and TEM; format: physicochemical; settings: dispersed in deionized water, 25° C.
Description: The characterization of the secondary structure of RP/LDA/DA-DM was confirmed by […] of TRP, TRP-DM, TRP/LDA/DA, and TRP/LDA/DA-DM, using 10 µM of the complex in water at 20° C. Measurements were made in the 180 to 260 nm range on a JASCO spectropolarimeter (Jasco Inc., Easton, MD, USA) using a 10 mm cuvette. All spectra were background-corrected and calculated in units of average residual ellipticity. This represents an average of 10 scan values. The optimized TRP/LDA/DA-DM [i.e., TRP (1:5:7)-15] was also characterized for average particle size, polydispersity index (PDI), and zeta potential using a dynamic light scattering analyzer (Malvern Zetasizer Nano ZS90; Malvern Instruments, Malvern, UK) at 25° C. TRP/LDA/DA-DM was dispersed in deionized water and sonicated for 1 min to minimize multi-scattering effects. In addition, morphological evaluation of the TRP formulation was performed by transmission electron microscopy (TEM). The diluted dispersion was placed on a copper grid, excess fluid was removed using filter paper, and negative staining was performed with a 2% aqueous solution of phosphortungstic acid. The prepared grids were observed by high-resolution TEM (HRTEM; JEM-200; JEOL, Tokyo, Japan).

[4] = Oral absorption: plasma TRP pharmacokinetics; format: in vivo, SD mice; settings: SD, mouse; for AUC(0-inf) / AUC(0-t) / Cmax / Tmax / half-life: single dose, n=5
Description: The oral absorption of TRP/LDA/DA-DM in mice was evaluated by determining the effectiveness of electrostatic complexes of TRP with LDA and DA and micellar formulations using DM. After fasting overnight, SD mice were orally administered 400 μL of TRP-Oral (1.6) (1.6 mg/kg TRP dissolved in water) or TRP (1:5:7)-15 (1.6) (equivalent to 1.6 mg/kg TRP). In addition, animals were injected subcutaneously with 200 μL of TRP-SC (0.04) (0.04 mg/kg TRP dissolved in physiological saline) to evaluate the relative oral bioavailability. Blood samples (250 μL) were collected in heparinized tubes (lithium heparin) from a cannulated femoral vein at specified time points (0, 0.167, 0.5, 1, 1.5, 2, 3, 4, 6 hours). Finally, plasma was separated by centrifugation (2500×g, 15 min, 4° C.) and stored at […] until analysis.
The plasma drug concentration of each sample was determined by UPLC-MS/MS. To construct a standard calibration curve, 180 μL of blank plasma was transferred to a tube, and then 10 μL of TRP at concentrations of 100, 50, 25, 10, 5, 2.5, 1, and 0 (blank) ng/ml was added to the blank plasma. To measure plasma drug concentrations after drug administration, 180 μL of mouse plasma samples at different time points were transferred to another tube, and then 10 μL hPTH (1-38) aqueous solution (100 ng/ml) (as an internal standard [IS]) was added to the TRP and blank plasma or drug-administered plasma samples. The samples were then precipitated by adding 200 μL acetonitrile containing 5% ammonium hydroxide. The precipitated sample was further diluted with 1 mL of water and centrifuged at 4° C. for 15 min at 4,000 rpm. The supernatant was extracted using the solid phase extraction (SPE) method and an Oasis® HLB uElution 96-well plate (Waters Corporation, Milford, MA, USA). Briefly, a 96-well plate was conditioned with 200 μL of methanol and then equilibrated with 200 μL of water. Four 350 μL aliquots of the supernatant were then added to each Oasis HLB uElution well. After the addition of standards or samples, the wells were washed with 200 μL of water containing 5% methanol. Then, TRP and IS were eluted with 25 μL of acetonitrile:water:trifluoroethanol:trifluoroacetic acid (60:34:5:1, v/v/v/v) mixture in two sequential aliquots. After further dilution of the eluate with 50 μL of water, 10 μL was injected into a UPLC system (Waters ACQUITY UPLC, Waters Corporation) equipped with an ACQUITY UPLC Peptide BEH C18 column (2.1×50 mm, 1.7 μm, 300 Å, Waters Corporation). The sample was placed at a low temperature of 6° C., and the column temperature was maintained at 60° C. during the analysis. Mobile phase A is composed of 0.5% (v/v) formic acid in water, and mobile phase B is composed of acetonitrile. TRP and IS were eluted at a gradient flow rate of 0.3 mL/min, where mobile phase A was equal to 85% (initial), 85% (0.8 min), 70% (1.2 min), 70% (2.2 min), 65% (2.7 min), 10% (3.0 min), 10% (4.0 min), 85% (5 min), and 85% (5 min). For ionization, a mass spectrometer (Xevo™ TO-S; Waters Corporation) was used in positive ion multiple reaction monitoring mode with electrospray voltage, source temperature, desolvation temperature, and desolvation gas flow rate of 3.0 kV, 150° C., 500° C., and 800 L/h, respectively. Quantification was performed with the transition of m/z 589.40→656.40 at 45 V cone voltage and 13 eV collision energy for TRP and m/z 744.20→855.50 at 20 V cone voltage and 20 eV collision energy for IS.

[5] = SC 0.022 mg/kg DEX once daily, 4 weeks
[6] = SC 0.02 mg/kg TRP once daily, 4 weeks

## C[C@@H]1C[C@H]2[C@@H]3CCC4=CC(=O)C=C[C@]4(C)[C@@]3(F)[C@@H](O)C[C@]2(C)[C@@]1(O)C(=O)CO [DEX, dexamethasone]
[1]; SC 0.022 mg/kg DEX once daily
  BMD of the total femur: 123 ± 7.92 mg/mL
  SMI change compared to the control (normal) group: −21.1%
  Tb.Th change compared to the control (normal) group: −7.98%
[2]; [5]
  serum CTx increase compared to the control (normal) group: 48.9%
  serum PINP reduction compared to the control (normal) group: 26.0%

## CCCCCCCCCCCCO[C@@H]1O[C@H](CO)[C@@H](O[C@H]2O[C@H](CO)[C@@H](O)[C@H](O)[C@H]2O)[C@H](O)[C@H]1O [DM, n-dodecyl-β-D-maltoside]
[3]
  Particle size: 7.43 nm
  Polydispersity index (PDI): 0.045
  Zeta potential: −0.260 mV

## CC[C@H](C)[C@H](NC(=O)[C@H](CCC(=O)O)NC(=O)[C@H](CO)NC(=O)[C@@H](NC(=O)[C@@H](N)CO)C(C)C)C(=O)N[C@@H](CCC(N)=O)C(=O)N[C@@H](CC(C)C)C(=O)N[C@@H](CCSC)C(=O)N[C@@H](Cc1cnc[nH]1)C(=O)N[C@@H](CC(N)=O)C(=O)N[C@@H](CC(C)C)C(=O)NCC(=O)N[C@@H](CCCCN)C(=O)N[C@@H](Cc1cnc[nH]1)C(=O)N[C@@H](CC(C)C)C(=O)N[C@@H](CC(N)=O)C(=O)N[C@@H](CO)C(=O)N[C@@H](CCSC)C(=O)N[C@@H](CCC(=O)O)C(=O)N[C@@H](CCCN=C(N)N)C(=O)N[C@H](C(=O)N[C@@H](CCC(=O)O)C(=O)N[C@@H](Cc1c[nH]c2ccccc12)C(=O)N[C@@H](CC(C)C)C(=O)N[C@@H](CCCN=C(N)N)C(=O)N[C@@H](CCCCN)C(=O)N[C@@H](CCCCN)C(=O)N[C@@H](CC(C)C)C(=O)N[C@@H](CCC(N)=O)C(=O)N[C@@H](CC(=O)O)C(=O)N[C@H](C(=O)N[C@@H](Cc1cnc[nH]1)C(=O)N[C@@H](CC(N)=O)C(=O)N[C@@H](Cc1ccccc1)C(=O)O)C(C)C)C(C)C [TRP, Human PTH (1-34) acetate]
[4]; Oral, 1.6 mg/kg TRP, relative to SC 0.04 mg/kg
  bioavailability: 0.559 ± 0.293%
[4]; Oral, 1.6 mg/kg TRP
  AUC(0-inf): 0.296 ± 0.0189 ng·h/mL
  AUC(0-t): 0.135 ± 0.0704 ng·h/mL
  Cmax: 0.155 ± 0.0572 ng/mL
  Tmax: 78 ± 16.2 min
  half-life: 43.2 ± 10.8 min
[4]; SC, 0.04 mg/kg TRP (reference), read-out: Relative bioavailability
  bioavailability: 100%
[4]; SC, 0.04 mg/kg TRP
  AUC(0-inf): 0.752 ± 0.0269 ng·h/mL
  AUC(0-t): 0.601 ± 0.12 ng·h/mL
  Cmax: 0.807 ± 0.135 ng/mL
  Tmax: 30 min
  half-life: 24 min
[1]; SC 0.02 or oral 0.4 and 0.8 mg/kg TRP, versus control (DEX) and TRP-Oral (0.4)
  trabecular bone microarchitecture, 3D micro-CT image of the femur: denser trabecular bone microarchitecture
[1]; SC 0.02 or oral 0.4 or 0.8 mg/kg TRP, versus control (DEX) and TRP-Oral (0.4)
  trabecular bone, H&E-stained histology of distal femora: increased structural integrity and denser trabecular bone microarchitecture
[1]; SC 0.02 mg/kg TRP once daily
  BMD higher than the DEX group: 29.4%
  BV/TV higher than the control (DEX) group: 13.2%
  Tb. Sp lower than the control (DEX) group: 17.4%
  Tb.N higher than the control (DEX) group: 2.8%
  Tb.Th higher than the control (DEX) group: 45.2%
[1]; oral 0.4 mg/kg TRP once daily
  BMD higher than the control (DEX) group: did not produce a significant improvement
[2]; [6]
  PINP higher compared to the control (DEX) group: 1.19 times
  serum osteocalcin level higher than TRP-oral (0.4) group: 9.68%
  serum osteocalcin level higher than control group (DEX): 28.2%
  serum osteocalcin level higher than control group (normal): 18.2%
[2]; SC 0.02 mg/kg TRP, at 6 hours, day 28
  serum calcium levels, maximum increase compared to the control (normal) group: 21.4%
[2]; oral 0.4 mg/kg TRP once daily, 4 weeks
  PINP secretion increase compared to DEX-treated mice only: not recovered
